Data: ChEMBL document CHEMBL4118026, “Limaol: A Polyketide from the Benthic Marine Dinoflagellate Prorocentrum lima” (J Nat Prod, 2017)

How the values were obtained:
Assay type in all cases: functional, cell-based
HepG2 = experiment: Cytotoxicity against human HepG2 cells after 24 hrs by MTT assay; conditions: HepG2, 24 h
HCT-116 = experiment: Cytotoxicity against human HCT116 cells after 24 hrs by MTT assay; conditions: HCT-116, 24 h
N2a = experiment: Cytotoxicity against mouse Neuro2a cells after 24 hrs by MTT assay

Compound | IC50 (HepG2) [nM] | IC50 (HCT-116) [nM] | IC50 (N2a) [nM]
C=C(CC(=C)CC(=C)C[C@H]1CC(C)=C[C@@]2(C[C@@H](O)[C@H]3O[C@H](C[C@@H](O)CC(=C)C[C@H]4O[C@H](C/C=C/CCO)C[C@@H](O)[C@@H]4O)[C@H](O)[C@@H](O)[C@@H]3O2)O1)CC(=C)C[C@@H](C)C[C@@H](C)O | 3700 | 7300 | 9600
C=C1[C@@H](O)[C@@H]2O[C@]3(CC[C@H](/C=C/[C@@H](C)[C@@H]4CC(C)=C[C@@]5(O[C@H](C[C@@](C)(O)C(=O)O)CC[C@H]5O)O4)O3)CC[C@H]2O[C@@H]1[C@@H](O)C[C@H](C)[C@H]1O[C@@]2(CCCCO2)CC[C@H]1C [OKADAIC ACID] | 540 | 670 | 850
